{"source": "patent US20110195982A1", "about": "“PREDICTIVE MARKER FOR EGFR INHIBITOR TREATMENT” (priority 2007, published 2011)", "key": {"[1]": {"test_system": "NSCLC", "settings": "second line after cisplatin-based first-line regimens, ECOG 0, 1 or 2, versus best supportive care; cited from earlier work"}, "[2]": {"test_system": "NSCLC", "settings": "second line therapy of NSCLC; cited from earlier work"}, "[3]": {"settings": "doses that provide the targeted effective concentration; cited from earlier work"}, "[4]": {"test_system": "advanced NSCLC", "assay": "open-label, predictive marker identification Phase II study of Tarceva monotherapy", "format": "in vivo, human", "protocol": "The selection of this dose was based on pharmacokinetic parameters, as well as the safety and tolerability profile of this dose observed in Phase I, II and III trials in heavily pre-treated patients with advanced cancer. Drug levels seen in the plasma of patients with cancer receiving the 150 mg/day dose were consistently above the average plasma concentration of 500 ng/ml targeted for clinical efficacy.\nThis was an open-label, predictive marker identification Phase II study. The study was conducted in approximately 26 sites in about 12 countries. 264 patients with advanced NSCLC following failure of at least one prior chemotherapy regimen were enrolled over a 12 month period. […] Dose reductions were permitted based on tolerability to drug therapy. Clinical and laboratory parameters were assessed to evaluate disease control and toxicity. Treatment continued until disease progression, unacceptable toxicity or death. The study design is depicted in FIG. 1.\nThe RECIST (Uni-dimensional Tumour Measurement) criteria were used to evaluate response. These criteria can be found under the following link: http://www.eortc.be/recist/\nNote that: To be assigned a status of CR or PR, changes in tumour measurements must be confirmed by repeated assessments at least 4 weeks apart at any time during the treatment period.\nIn the case of SD, follow-up measurements must have met the SD criteria at least once after study entry at a minimum interval of 6 weeks.\nIn the case of maintained SD, follow-up measurements must have met the SD criteria at least once after study entry with maintenance duration of at least 12 weeks.\nA regular status check every 3 months was performed either by a patient's visit to the clinic or by telephone. All deaths were recorded. At the end of the study a definitive confirmation of survival was required for each patient."}, "[5]": {"settings": "patients with cancer, 150 mg/day; cited from earlier work"}, "[6]": {"test_system": "NSCLC", "settings": "single agent, after failure of standard therapy for advanced disease, versus placebo; cited from earlier work"}, "[7]": {"settings": "75 patients with qRT-PCR results"}, "[8]": {"settings": "102 patients with microarray data"}, "[9]": {"settings": "all 264 enrolled patients, 150 mg/day oral"}, "[10]": {"settings": "of the 102 patients with microarray data"}}, "data": [{"compound": "CC(=O)O[C@@]12CO[C@@H]1C[C@H](O)[C@@]1(C)C(=O)[C@H](O)C3=C(C)[C@@H](OC(=O)[C@H](O)[C@@H](NC(=O)OC(C)(C)C)c4ccccc4)C[C@@](O)([C@@H](OC(=O)c4ccccc4)[C@H]21)C3(C)C", "note": "[docetaxel]", "values": [{"measurement": "survival", "setting": "[1]", "value": "improved survival"}]}, {"compound": "Nc1nc2[nH]cc(CCc3ccc(C(=O)N[C@@H](CCC(=O)O)C(=O)O)cc3)c2c(=O)[nH]1", "note": "[pemetrexed]", "values": [{"measurement": "efficacy compared with docetaxel", "setting": "[2]", "value": "clinically equivalent efficacy"}, {"measurement": "side effects compared with docetaxel", "setting": "[2]", "value": "significantly fewer side effects"}]}, {"compound": "C#Cc1cccc(Nc2ncnc3cc(OCCOC)c(OCCOC)cc23)c1", "note": "[Tarceva, erlotinib]", "values": [{"measurement": "safety and tolerability", "setting": "[3]", "value": "safe and generally well tolerated"}, {"measurement": "PD", "setting": "[4]; [7]", "value": 52, "unit": "%"}, {"measurement": "partial response (PR)", "setting": "[4]; [7]", "value": 5, "unit": "%"}, {"measurement": "Best Response SD, n (%)", "setting": "[4]; [8]", "value": "31 (30.4%)"}, {"measurement": "Clinical Benefit YES, n (%)", "setting": "[4]; [8]", "value": "21 (20.6%)"}, {"measurement": "clinical benefit (objective response or stable disease for 12 weeks or more)", "setting": "[4]; [9]", "value": 31.4, "unit": "%"}, {"measurement": "median overall survival", "setting": "[4]; [9]", "value": "7.6 (CI 7-9) months"}, {"measurement": "median progression-free survival", "setting": "[4]; [9]", "value": "11.3 (CI 8-12) weeks"}, {"measurement": "patients achieving an objective response", "setting": "[4]; all 264 enrolled patients, 150 mg/day oral, RECIST", "value": 13.6, "unit": "%"}, {"measurement": "number of partial responders (PR)", "setting": "[4]; [10]", "value": 6}, {"measurement": "number of patients with PD", "setting": "[4]; [10]", "value": 49}, {"measurement": "number of patients with SD", "setting": "[4]; [10]", "value": 31}, {"measurement": "patients achieving a CR", "setting": "[4]; [10]", "value": "no patients achieving a CR"}, {"measurement": "drug levels in plasma", "setting": "[5]", "value": "> 500", "unit": "ng/mL"}, {"measurement": "survival of NSCLC patients", "setting": "[6]", "value": "significantly prolongs and improves the survival"}]}]}
